Assay results as given in patent US20050215978A1, “Method of enhancing catheter patency using a citrate salt catheter lock solution” (priority 2001, published 2005).

What was measured:
bacteremia = experiment: monthly incidence of bacteremia in outpatient hemodialysis unit by catheter lock solution; type: in vivo, human patients
[1] = urokinase use to open occluded or low-flowing tunneled catheters / clotting of catheters in dialysis unit; type: in vivo, human patients; settings: satellite outpatient hospital unit, Jan 1998-May 1999

heparin
incidence of bacteremia, percent of patients in the unit per month (bacteremia; RTC unit, 70 patients, about 60% with tunneled catheters, heparin Jan-Jul 1998, citrate locks Sep 1998-Jul 1999, 47% citrate May-Jul 1999): 4.6%
incidence of bacteremia, all other months (bacteremia; satellite outpatient hospital unit, 20 ESRD patients, Jan 1998-May 1999): zero
incidence of bacteremia, percent of all patients, the one month with a case (bacteremia; satellite outpatient hospital unit, 20 ESRD patients, Jan 1998-May 1999, one patient in one month): 5%
urokinase use [1]: remained low
